Among the data in US4626540A, “Substituted 1-amino-4-nitro-acridinones and methods of treating bacterial infections and leukemia with them” (Warner-Lambert Company, priority 1984, dated 1986) are IC50, response vs control in vivo and MIC values, retold here.

Assay [1] has as its system L1210 murine leukemia cell lines. The experiment in a line: In vitro antitumor screening (PDC test), L1210 murine leukemia cell growth. Format: cell-based. The settings on record: Mus musculus, 72 h; L1210 cells, 37° C., three days; value is ID50 multiplied by 10^7. Here is the method: Another test protocol is the in vitro antitumor screening (PDC test) of compounds of the present invention on L1210 murine leukemia cell lines. L1210 cells, a murine leukemia cell line, were grown in RPMI 1640 supplemented with 5% fetal bovine serum and gentamicin (50 μg/ml).
Drug dilutions were prepared in the apropriate solvent and 20 μl of each dilution were added to 24-well Linbro tissue culture plats, followed by the addition of M 2.0 ml of cell suspension containing 3×10^4 cells per ml. Solvent and medium controls were included in each test. After incubation at 37° C. for three days in 5% CO2, the contents of each well were removed and the cells counted in a ZBI Coulter counter. Percent growth was calculated relative to the controls and the levels of drug activity wre expressed as ID50 in moles per liter using probit paper.

Assay [2] has as its system HCT-8 cells. Nature of the assay: In vitro proliferating human colon adenocarcinoma (HCA) cell screen, HCT-8 cells.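 Further: ID50 is the molar concentration giving 50% growth inhibition.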 The assay is classed as cell-based. The settings on record: 60-65 hours at 37° C., value is ID50 multiplied by 10^7. Here is the method:
One test protocol is the in vitro proliferating human colon adenocarcinoma (HCA) cell screen. In this test, HCT-8 cells (HCA cell line received from Yale University) are trypsinized using trypsin-EDTA. A single cell suspension is achieved by passing the cells through a 26-gauge needle with a 20-cc syringe. A cell suspension is prepared using RPMI 1640+10% FCS+50 μg/ml gentamicin sulfate with a cell concentration of approximately 5,000 cells/ml. The cell suspension is dispensed in Linbro 24-well plates; 1 ml/well. The plates are incubated for approximately 48 hours at 37° C. in a 5% CO2 atmosphere. At this time test compounds are added in the appropriate concentration. Ten μl of the appropriate dilution is added to each well for a titration test. The plates are reincubated an additional 60-65 hours at 37° C. in a 5% CO2 atmosphere. The cells are lysed using a mix of cationic surfactant, glacial acetic acid and sodium chloride. Two ml of the lysed cell suspension from each well is added to 8 ml of diluent. The number of nuclei is determined using a Coulter counter (ZBI model), and a percent growth for each drug concentration is calculated.

Assay [3] relates to lymphocytic leukemia P388. Nature of the assay: In vivo lymphocytic leukemia P388 test. Details: species or system CD2 F1 mice. Particulars: Mus musculus, P388, ip, read-out: P388 in vivo T/C × 100. The method, then:
Another test protocol is the in vivo lymphocytic leukemia P388 test. the animals used are either male or female CD2 F1 mice, six or seven animals per test group. The tumor transplant is by intraperitoneal injection of dilute ascitic fluid containing cells of lymphocytic leukemia P388. The test compounds are administered intraperitoneally once daily for five consecutive days at various doses following tumor inoculation. The animals are weighed and survivors are recorded on a regular basis for 30 days. A compound is designated "toxic" if, at a given dose, all animals die prior to four days after the first injection of drug. A ratio of survival time for treated (T)/control (C) animals is calculated. A criterion for efficacy is a ratio T/C times 100 greater than or equal to 125. See Cancer Chemotherapy Reports, Part 3, 3, 1 (1972) for a comprehensive discussion of the protocol.

The subject of assay [4] is Escherichia coli. The experiment in a line: In vitro antibacterial (ABMF) microdilution test, Escherichia coli. The assay is classed as cell-based. The settings on record: Mueller-Hinton broth, 37° C., 16-24 hours, read-out: ABMF minimal inhibitory conc, E. coli. From the text: (§1) Still another test protocol is the in vitro antibacterial (ABMF) test which is a recognized standard microdilution susceptibility procedure in Mueller-Hinton broth against Gram-positive and Gram-negative bacterial test organisms. The procedure is a modification of a state-of-the-art procedure reported in Manual of Clinical Microbiology, Lennette, E. H., ed., by Barry, A. L. and C. Thornsberry at pages 463-474 and by Gavan, T. L. and A. L. Barry at pages 459-462, American Society for Microbiology, Washington, 1980.
(§2) In the test, a given bacterial culture is used to inoculate individual test wells of microdilution trays containing growth medium and test compound, the latter in a microdilution series: 1000, 333, 111, 37, 12, 4, 1.4, and 0.46 micrograms per milliliter. […] For convenience, values are reported for Escherichia coli, Corynebacterium Sp. ATCC 21698, Branhamella catarrhalis, Streptococcus pneumoniae, and Bacillus cereus.
(In general: In broth dilution the organism is exposed to a series of concentrations in liquid medium.)

In assay [5] the test system is Corynebacterium Sp. ATCC 21698. Nature of the assay: In vitro antibacterial (ABMF) microdilution test, Corynebacterium Sp. The assay is classed as cell-based. The settings on record: ATCC21698, Mueller-Hinton broth, 37° C., 16-24 hours, read-out: ABMF minimal inhibitory conc, Coryn. Species.
Source text: as §1, §2

The test system of assay [6] is Branhamella catarrhalis. The experiment in a line: In vitro antibacterial (ABMF) microdilution test, Branhamella catarrhalis. The assay is classed as cell-based. The settings on record: Moraxella catarrhalis; Mueller-Hinton broth, 37° C., 16-24 hours; read-out: ABMF minimal inhibitory conc, B. cat.
Source text: as §1, §2

In assay [7] the test system is Streptococcus pneumoniae. Nature of the assay: In vitro antibacterial (ABMF) microdilution test, Streptococcus pneumoniae. The assay is classed as cell-based. Particulars: Mueller-Hinton broth, 37° C., 16-24 hours, read-out: ABMF minimal inhibitory conc, S. pneu.
Source text: as §1, §2

Assay [8] deals with Bacillus cereus. Nature of the assay: In vitro antibacterial (ABMF) microdilution test, Bacillus cereus. The settings on record: Mueller-Hinton broth, 37° C., 16-24 hours, read-out: ABMF minimal inhibitory conc, B. cer. Format: cell-based.
Source text: as §1, §2

Setting [9] is: intraperitoneal, once daily for five days, survival time treated/control.
[10] abbreviates: 50 mg/kg, intraperitoneal, once daily for five days, survival time treated/control.

Structures can show the parent of a compound that is named as a salt. Where two headings read alike, the source gives them in different places. Bounds are passed on as bounds.

Take `CCOc1ccc2[nH]c3c([N+](=O)[O-])ccc(NCCCN(C)C)c3c(=O)c2c1.CS(=O)(=O)O` [Example 23, 1-[[(Dimethylamino)propyl]amino]-7-ethoxy-4-nitro-9(10H)acridinone, methanesulfonate]: the results for the IC50 in assay [1] and in assay [2] were 320 nM and 200 nM, respectively. Besides, the response vs control in vivo at 12.5 mg/kg in assay [3] (setting [9]) turned out to be 135%. The response vs control in vivo at 25 mg/kg in assay [3] (setting [9]) turned out to be 157%. Further, the response vs control in vivo at 50 mg/kg in assay [3] (setting [10]) amounted to 210%. Further, the MIC in assay [4] is less than 0.46 µg/mL; in assay [5], less than 0.46 µg/mL; in assay [6] it was less than 0.46 µg/mL; in assay [7] it was 1.4 µg/mL; in assay [8], 12.3 µg/mL.

`CN(C)CCCNc1ccc([N+](=O)[O-])c2[nH]c3ccccc3c(=O)c12.CS(=O)(=O)O` [Example 20, 1-[[3-(Dimethylamino)propyl]amino]-4-nitro-9(10H)-acridinone, methanesulfonate (1:1)]: the IC50 (commonly the concentration needed to halve the response being measured) in assay [1] was found to be 570 nM; in assay [2], 200 nM. Moreover, the response vs control in vivo at 50 mg/kg in assay [3] (setting [10]) amounted to 144%. Besides, the response vs control in vivo at 100 mg/kg in assay [3] (setting [9]) came to 189%. Moreover, the MIC is 1.4 µg/mL in assay [4]; less than 0.46 µg/mL in assay [5]; less than 0.46 µg/mL in assay [6]; less than 0.46 µg/mL in assay [7]; 4.1 µg/mL in assay [8].

On to `COc1ccc2[nH]c3c([N+](=O)[O-])ccc(NCCN(C)C)c3c(=O)c2c1.CS(=O)(=O)O` [Example 9, 1-[[2-(Dimethylamino)ethyl]amino]-7-methoxy-4-nitro-9(10H)-acridinone, methanesulfonate (1:1)], for which the 50% inhibitory concentration (IC50) in assay [1] is 260 nM; in assay [2], 890 nM. Also, the response vs control in vivo at 25 mg/kg in assay [3] (setting [9]) is 124%. For the same compound, in assay [3] (setting [10]), the response vs control in vivo at 50 mg/kg worked out at 146%. Further, the response vs control in vivo at 100 mg/kg in assay [3] (setting [9]) stood at 201%. Besides, in assay [3] (200 mg/kg, intraperitoneal, once daily for five days, survival time treated/control), the response vs control in vivo at 200 mg/kg turned out to be 269%. Besides, the MIC in assay [4] was greater than 1000 µg/mL; in assay [5], less than 0.46 µg/mL; in assay [6] it was less than 0.46 µg/mL; in assay [7] it was less than 0.46 µg/mL; in assay [8] it was greater than 1000 µg/mL.

For the compound `CCCCOc1ccc2[nH]c3c([N+](=O)[O-])ccc(NCCCN(C)C)c3c(=O)c2c1.CS(=O)(=O)O` [Example 24, 7-Butoxy-1-[[3-(dimethylamino)propyl]amino]-4-nitro-9(10H)-acridinone, methanesulfonate], the IC50 was determined as 350 nM in assay [1] and 370 nM in assay [2]. Moreover, in assay [3] (setting [9]), the response vs control in vivo at 12.5 mg/kg came out at 123%. In addition, in assay [3] (setting [9]), the response vs control in vivo at 25 mg/kg turned out to be 151%. Also, the MIC in assay [4] stood at 12.3 µg/mL; in assay [5] it was 4.1 µg/mL; in assay [6], 12.3 µg/mL; in assay [7] it was 1.4 µg/mL; in assay [8] it was 111 µg/mL.

In the case of `CCN(CC)CCNc1ccc([N+](=O)[O-])c2[nH]c3ccc(O)cc3c(=O)c12` [Example 2, 1-[[2-(Diethylamino)ethyl]amino]-7-hydroxy-4-nitro-9(10H)-acridinone, methanesulfonate (1:1), hydrate (1:1)], the IC50 in assay [1] is 6.7 nM; in assay [2], 4.5 nM. In assay [3] (setting [9]), the response vs control in vivo at 12.5 mg/kg was determined as 250%. Further, the MIC in assay [4], in assay [5], in assay [6], in assay [7] and in assay [8] was less than 0.46 µg/mL in each case.

Turning to `CN(C)CCNc1ccc([N+](=O)[O-])c2[nH]c3ccccc3c(=O)c12` [Example 8, 1-[[2-(Dimethylamino)ethyl]amino]-4-nitro-9(10H)-acridinone, methanesulfonate (1:1), hemihydrate], the results for the IC50 in assay [1] and in assay [2] were 390 nM and 340 nM, respectively. Also, the response vs control in vivo at 25 mg/kg in assay [3] (setting [9]) was found to be 142%. In assay [3] (setting [10]), the response vs control in vivo at 50 mg/kg worked out at 185%. The MIC in assay [4] is 1.4 µg/mL; in assay [5] it was less than 0.46 µg/mL; in assay [6], less than 0.46 µg/mL; in assay [7], less than 0.46 µg/mL; in assay [8], 4.1 µg/mL.

Turning to `CCN(CC)CCCNc1ccc([N+](=O)[O-])c2[nH]c3ccc(OC)cc3c(=O)c12` [Example 26, 1-[[3-(Diethylamino)propyl]amino]-7-methoxy-4-nitro-9(10H)-acridinone, methanesulfonate (salt) (1:1)], the half-maximal inhibitory concentration (IC50) in assay [1] turned out to be 78 nM; in assay [2] it was 270 nM. Moreover, the response vs control in vivo at 12.5 mg/kg in assay [3] (setting [9]) worked out at 127%. In addition, the response vs control in vivo at 25 mg/kg in assay [3] (setting [9]) amounted to 142%. In assay [3] (setting [10]), the response vs control in vivo at 50 mg/kg amounted to 161%. The response vs control in vivo at 100 mg/kg in assay [3] (setting [9]) was found to be 198%. Further, the MIC in assay [4] was 12.3 µg/mL; in assay [5] it was 0.46 µg/mL; in assay [6], less than 0.46 µg/mL; in assay [7], 4.1 µg/mL; in assay [8], 12.3 µg/mL.

Consider `CCOc1ccc2[nH]c3c([N+](=O)[O-])ccc(NC(C)CN(C)C)c3c(=O)c2c1` (stereo not shown) [Example 13, 1[[2-(Dimethylamino)-1-methylethyl]amino]-7-ethoxy-4-nitro-9(10H)-acridinone, monomethanesulfonate, hyrate], for which the 50% inhibitory concentration (IC50) in assay [1] turned out to be 1090 nM; in assay [2] it was 500 nM. Also, the response vs control in vivo at 50 mg/kg in assay [3] (120 h) was 227%. For the same compound, in assay [3] (setting [9]), the response vs control in vivo at 25 mg/kg came to 180%. For the same compound, the MIC is 12.3 µg/mL in assay [4]; less than 0.46 µg/mL in assay [5]; 4.1 µg/mL in assay [6]; 1.4 µg/mL in assay [7]; 12.3 µg/mL in assay [8].

In the case of `CCCCOc1ccc2[nH]c3c([N+](=O)[O-])ccc(NCCNCCO)c3c(=O)c2c1` [Example 18, 7-Butoxy-1-[[2-[(2-hydroxyethyl)amino]ethyl]amino]-4-nitro-9(10H)-acridinone, methanesulfonate, 0.3 hydrate], the IC50 was found to be 350 nM in assay [1] and 400 nM in assay [2]. Also, the response vs control in vivo at 12.5 mg/kg in assay [3] (setting [9]) was determined as 121%. In assay [3] (setting [9]), the response vs control in vivo at 25 mg/kg amounted to 136%. In addition, the MIC is 111 µg/mL in assay [4]; 37 µg/mL in assay [5]; 333 µg/mL in assay [6]; 37 µg/mL in assay [7]; 333 µg/mL in assay [8].
